What was measured:
[1] = adult, 1-2 inhalations
Source text: Example 2: A second patient treatment is of an adult experiencing sinus headaches using nebulized ethanol solution.

[2] = Description: Example 1: A first patient treatment example is that of an adult experiencing pain from multiple neck injuries and replaced vertebrae who was treating pain using 60 mg Oxycontin® (30 mg in morning and night) and 6 doses of Percocet® daily as needed before ethanol treatment. The patient's opioid usage history spanned 11 years. The first patient also took Ambien® at night to promote sleep.
The first patient takes nebulized alcohol in the morning and at bedtime (about 3-4 inhalations each time), wakes in the night to use the bathroom, and occasionally takes nebulized alcohol during the night.

[3] = remark: listed apart in the source
Description: Example 3: A third patient experienced acute pain from a chronic back injury which occurred during a car accident approximately 40 years earlier. The patient experienced acute pain for about 8 hours, requiring assistance to lower themself to sit in a chair, to stand up from the chair, and to walk about.

Remark: listed apart in the source
[4] = over the course of ethanol treatment
[5] = patient report, result of reduced Oxycontin doses
[6] = patient report, nebulized alcohol morning and bedtime

Substance: Ethyl alcohol [nebulized ethanol]
- rate of achieving pain relief compared with other treatments (sinus rinse, other pain medications) [1]: significantly faster
- reported levels of pain ([2]; adult male, 11 years of opioid use, over the course of ethanol treatment, about 3-4 inhalations morning and bedtime): significantly lower
- Oxycontin usage ([2]; after 6 months of ethanol therapy, 60 mg daily before treatment): 10 mg/day
- Percocet usage ([2]; after 6 months of ethanol therapy, 6 doses daily as needed before treatment): no Percocet® during the day
- opioid usage [2, 4]: reduced
- physical stamina, physical performance (kidney and bowel function), and mental acuity [2, 4]: improved
- alertness, attention, and mental acuity [2, 5]: increased
- bowel function [2, 5]: increased bowel function
- mobility [2, 5]: greater mobility (able to resume dance activities)
- posture [2, 5]: improved posture (able to hold head in a vertical position)
- renal function [2, 5]: increased renal function (no more water retention/bloating)
- quality of sleep [2, 6]: increased
- usage of sleep aids to counteract discomfort and pain from injuries [2, 6]: reduced
- pain relief after repeated treatment ([3]; 4 inhalations per treatment): complete relief
- pain relief after initial session ([3]; 5 inhalations per treatment): complete pain relief
- time until pain recurred after the initial session ([3]; 5 inhalations per treatment): approximately 12 hours
- time to complete remission of pain ([3]; in vivo): 48 h
- time to remission relative to time with other analgesics prior to ethanol therapy ([3]; in vivo): approximately 50%
- duration of brain effects (euphoria, and so forth) (persons in the absence of significant pain): about 2 hours
- reported feeling (side effects) (persons who take nebulized alcohol for pain): moderate sleepiness or drowsiness, but not “buzzed” or “intoxicated”
